Assay results reported in PubChem BioAssay AID248 (DTP/NCI, 2004).
Values joined by “and” are separate entries in the source; they are usually repeats but may differ in a detail not shown here. Identical values can stand only once. Toxic doses and inconclusive results are not listed. Rule as the data show it: active = T/C of 150% or more; inactive = T/C below 125%. Peptide text beside a SMILES is read from it. * marks the point of attachment. Bz = O=C(c1ccccc1)*

System: L1210 leukemia ip in BDF1 mice, survival T/C
Test: NCI In Vivo Anticancer Drug Screen. Data for tumor model L1210 Leukemia (intraperitoneal) in B6D2F1 (BDF1) mice
Details: endpoint: mean survival time, higher = longer survival
In short: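 Transplanted-tumor mice were given test agent; controls received vehicle only. Survival readings from the two groups were divided (treated over control).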

[1] = dose: 100.0 mg/kg/injection, schedule: Q01DX009 (ip), vehicle: Klucel (hydroxypropylcellulose) (HPC)
[2] = dose: 400.0 mg/kg/injection, schedule: Q01DX009 (ip), vehicle: Klucel (hydroxypropylcellulose) (HPC)
[3] = dose: 100.0 mg/kg/injection, schedule: Q01DX009 (ip), vehicle: saline with Tween-80
[4] = dose: 200.0 mg/kg/injection, schedule: Q01DX009 (ip), vehicle: saline with Tween-80
[5] = dose: 400.0 mg/kg/injection, schedule: Q01DX009 (ip), vehicle: saline with Tween-80
[6] = dose: 100.0 mg/kg/injection, schedule: Q01DX009 (ip), vehicle: saline
[7] = dose: 100.0 mg/kg/injection, schedule: Q04DX003 (ip), vehicle: saline
[8] = dose: 200.0 mg/kg/injection, schedule: Q04DX003 (ip), vehicle: saline
[9] = dose: 25.0 mg/kg/injection, schedule: Q01DX009 (ip), vehicle: saline with Tween-80
[10] = dose: 50.0 mg/kg/injection, schedule: Q01DX009 (ip), vehicle: saline with Tween-80
[11] = dose: 100.0 mg/kg/injection, schedule: Q04DX003 (ip), vehicle: saline with Tween-80
[12] = dose: 100.0 mg/kg/injection, schedule: Q04DX003 (ip), vehicle: gum acacia
[13] = dose: 100.0 mg/kg/injection, schedule: Q04DX002 (ip), vehicle: Klucel (hydroxypropylcellulose) (HPC)
[14] = dose: 100.0 mg/kg/injection, schedule: Q04DX003 (ip), vehicle: Klucel (hydroxypropylcellulose) (HPC)
[15] = dose: 200.0 mg/kg/injection, schedule: Q01DX009 (ip), vehicle: Klucel (hydroxypropylcellulose) (HPC)
[16] = dose: 200.0 mg/kg/injection, schedule: Q04DX003 (ip), vehicle: Klucel (hydroxypropylcellulose) (HPC)
[17] = dose: 400.0 mg/kg/injection, schedule: Q04DX003 (ip), vehicle: Klucel (hydroxypropylcellulose) (HPC)

Measured: T/C

CCCCOc1ccc(/C=N/NC(=O)Nc2ccccc2)cc1
inactive: dose: 25.0 mg/kg/injection, schedule: Q01DX009 (ip), vehicle: Klucel (hydroxypropylcellulose) (HPC) 95 % of control | dose: 50.0 mg/kg/injection, schedule: Q01DX009 (ip), vehicle: Klucel (hydroxypropylcellulose) (HPC) 97 % of control | [1] 88 % of control and 90 % of control | [2] 87 % of control

COC(=O)CNC(=O)CNC(=O)c1ccccc1 (Bz-Gly-Gly-OMe)
inactive: [3] 89 % of control | [4] 87 % of control | [5] 87 % of control

CC(=O)C(C#N)C(C)=O.CC(=O)C(C#N)C(C)=O.[Mn]
inactive: [6] 107 % of control | [7] 105 % of control | [8] 102 % of control

COc1ccccc1N1CCN(CC(O)COc2ccccc2C(C)=O)CC1 (configuration not stated)
inactive: [9] 107 % of control | [10] 105 % of control | [3] 109 % of control | [11] 96 % of control

CC(=O)OC(C)(/N=N/C(C)(OC(C)=O)c1ccc(Cl)cc1)c1ccc(Cl)cc1 (configuration not stated)
inactive: dose: 25.0 mg/kg/injection, schedule: Q01DX009 (ip), vehicle: gum acacia 113 % of control | dose: 25.0 mg/kg/injection, schedule: Q04DX003 (ip), vehicle: gum acacia 98 % of control | dose: 50.0 mg/kg/injection, schedule: Q01DX009 (ip), vehicle: gum acacia 100 % of control | dose: 50.0 mg/kg/injection, schedule: Q04DX003 (ip), vehicle: gum acacia 98 % of control | dose: 100.0 mg/kg/injection, schedule: Q01DX001 (ip), vehicle: gum acacia 92 % of control | dose: 100.0 mg/kg/injection, schedule: Q01DX009 (ip), vehicle: gum acacia 94 % of control | [12] 102 % of control

CN1C(=O)C2CCCN2C(=O)C1(C)O (configuration not stated)
inactive: dose: 100.0 mg/kg/injection, schedule: Q04DX002 (ip), vehicle: saline 90 % of control | dose: 200.0 mg/kg/injection, schedule: Q04DX002 (ip), vehicle: saline 97 % of control | dose: 400.0 mg/kg/injection, schedule: Q04DX002 (ip), vehicle: saline 97 % of control

CCCCCCNC(N)=O
inactive: [10] 93 % of control and 100 % of control | [3] 100 % of control and 101 % of control | [4] 100 % of control and 101 % of control

CC12CCC3C(CCC4CCCCC43C)C1CCC2CO (configuration not stated)
inactive: dose: 100.0 mg/kg/injection, schedule: Q04DX002 (ip), vehicle: DMSO 101 % of control | dose: 200.0 mg/kg/injection, schedule: Q04DX002 (ip), vehicle: DMSO 99 % of control | dose: 400.0 mg/kg/injection, schedule: Q04DX002 (ip), vehicle: DMSO 89 % of control

CCCCSC1CCCC1
inactive: dose: 50.0 mg/kg/injection, schedule: Q01DX009 (ip), vehicle: acetone 98 % of control | dose: 100.0 mg/kg/injection, schedule: Q01DX001 (ip), vehicle: saline 89 % of control | dose: 100.0 mg/kg/injection, schedule: Q01DX009 (ip), vehicle: acetone 110 % of control | dose: 200.0 mg/kg/injection, schedule: Q01DX001 (ip), vehicle: saline 92 % of control

OCCCN1CCC2(CC1)SSC1(CCN(CCCO)CC1)S2
inactive: dose: 50.0 mg/kg/injection, schedule: Q01DX009 (ip), vehicle: saline 95 % of control | [6] 101 % of control | [7] 95 % of control | [8] 98 % of control

NNC(=O)CNc1cccc(Cl)c1F
inactive: dose: 25.0 mg/kg/injection, schedule: Q04DX002 (ip), vehicle: Klucel (hydroxypropylcellulose) (HPC) 92 % of control | dose: 50.0 mg/kg/injection, schedule: Q04DX002 (ip), vehicle: Klucel (hydroxypropylcellulose) (HPC) 92 % of control | [13] 122 % of control

Cc1ccc(S(=O)(=O)OC2C(O)OCC3OC(C)(C)OC32)cc1 (configuration not stated)
inactive: [3] 95 % of control | [4] 88 % of control | [5] 88 % of control

c1cc(C2CO2)ccc1Oc1ccc(C2CO2)cc1 (configuration not stated)
inactive: dose: 1.0 mg/kg/injection, schedule: Q01DX Z (ip), vehicle: methylcellulose (MC) 96 % of control | dose: 3.3 mg/kg/injection, schedule: Q01DX Z (ip), vehicle: methylcellulose (MC) 98 % of control | dose: 10.0 mg/kg/injection, schedule: Q01DX Z (ip), vehicle: methylcellulose (MC) 104 % of control | dose: 33.0 mg/kg/injection, schedule: Q01DX Z (ip), vehicle: methylcellulose (MC) 98 % of control | dose: 100.0 mg/kg/injection, schedule: Q01DX Z (ip), vehicle: methylcellulose (MC) 86 % of control

CCC(=O)Nc1ccc(F)cc1
inactive: dose: 100.0 mg/kg/injection, schedule: Q01DX001 (ip), vehicle: Klucel (hydroxypropylcellulose) (HPC) 105 % of control | [1] 99 % of control | [14] 94 % of control | dose: 200.0 mg/kg/injection, schedule: Q01DX001 (ip), vehicle: Klucel (hydroxypropylcellulose) (HPC) 99 % of control | [15] 113 % of control | [16] 94 % of control | dose: 400.0 mg/kg/injection, schedule: Q01DX001 (ip), vehicle: Klucel (hydroxypropylcellulose) (HPC) 93 % of control | [2] 120 % of control | [17] 105 % of control

O=C(O)CCC1(CCC(=O)O)SCSCS1
inactive: [14] 93 % of control | [16] 98 % of control | [17] 93 % of control

O=I(=O)c1ccccc1
inactive: [9] 101 % of control | [10] 103 % of control | [3] 97 % of control | [11] 96 % of control

CCC/C(=N/NC(=O)c1ccccc1)c1ccccc1
inactive: [13] 110 % of control | dose: 200.0 mg/kg/injection, schedule: Q04DX002 (ip), vehicle: Klucel (hydroxypropylcellulose) (HPC) 110 % of control | dose: 400.0 mg/kg/injection, schedule: Q04DX002 (ip), vehicle: Klucel (hydroxypropylcellulose) (HPC) 100 % of control

C=CCc1ccc(OCC(=O)O)c(OC)c1
inactive: [11] 106 % of control | dose: 200.0 mg/kg/injection, schedule: Q04DX003 (ip), vehicle: saline with Tween-80 93 % of control | dose: 400.0 mg/kg/injection, schedule: Q04DX003 (ip), vehicle: saline with Tween-80 97 % of control

S=C(c1cccs1)N1CCOCC1
inactive: [12] 93 % of control | dose: 200.0 mg/kg/injection, schedule: Q04DX003 (ip), vehicle: gum acacia 100 % of control | dose: 400.0 mg/kg/injection, schedule: Q04DX003 (ip), vehicle: gum acacia 91 % of control

Cc1cc(O)c(O)c(S(=O)(=O)c2ccccc2)c1
inactive: dose: 87.5 mg/kg/injection, schedule: Q01DX009 (ip), vehicle: saline with Tween-80 94 % of control | dose: 175.0 mg/kg/injection, schedule: Q01DX009 (ip), vehicle: saline with Tween-80 96 % of control | dose: 350.0 mg/kg/injection, schedule: Q01DX009 (ip), vehicle: saline with Tween-80 100 % of control

O=C1C=CC(=O)N1Nc1ccccc1
inactive: [14] 100 % of control | [16] 102 % of control | [17] 97 % of control

NC(=O)Nc1n[nH]c(-c2ccccc2)n1
inactive: [6] 90 % of control

CC(=O)c1cccc(NC(=O)Oc2ccc(-c3ccccc3)cc2Cl)c1
inactive: [1] 98 % of control | [15] 97 % of control | [2] 106 % of control

CC(=O)N(C)c1ccc(NC(=O)Nc2ccc(C)cc2[N+](=O)[O-])cc1
inactive: [14] 94 % of control | [16] 94 % of control | [17] 94 % of control
